The subject of the assay is recognition learning and memory retrieval. The assay is described as follows: Novel Object Recognition (NOR) test. Conditions: rats on low Mg diet; in comparison to Magtein and placebo control; FIG. 7. The format is in vivo, Sprague Dawley rats. The text has this:
Male Sprague Dawley rats (150-175 grams on arrival) from Envigo (Indianapolis, IN) were used in the study. Upon receipt, rats were assigned unique identification numbers and were group housed with 2-3 rats per cage in ventilated cages with micro-isolator filter tops. All rats were examined and weighed prior to initiation of the study to assure adequate health and suitability. During the course of the study, 12/12 light/dark cycles will be maintained. The room temperature will be maintained between 20° C. and 23° C. with a relative humidity maintained around 50%.
On the day of arrival to the research facility, animals (except for the normal Mg diet group, N=15) were placed on LabDiet 5008, a diet that is deficient in Mg containing 0.20% magnesium. […]
The Novel Object Recognition (NOR) is a test of recognition learning and memory retrieval, which takes advantage of the spontaneous preference of rodents to investigate a novel object compared to a familiar one. […] All training and testing trials were video-taped and scored by an observer blind to treatments.
On days 1 and 2, rats were allowed to freely explore the arena (no objects inside) for a 5-minute habituation period. […] One hour later, the rats were again placed into the test arena in the presence of one familiar object and one novel object (Object A and Object B), and the time spent exploring both objects is recorded. […]

Molecules are shown by their SMILES.

For the compound `O=C([O-])CC(O)(CC(=O)[O-])C(=O)[O-].O=C([O-])CC(O)(CC(=O)[O-])C(=O)[O-].[Mg+2].[Mg+2].[Mg+2]` [Mg citrate], the “Cognitive function (Novel Object Recognition test, Recognition Index)” value is “trend toward improvement in cognitive function”.

Values taken from patent publication US12564605B2, “Plant based compositions and methods for the delivery of magnesium” (Standard Process, Inc., priority 2018, dated 2026).
